Experimental data published in paper PMC4561908, “Direct Pore Binding as a Mechanism for Isoflurane Inhibition of the Pentameric Ligand-gated Ion Channel ELIC” (Scientific Reports, 2015).
Read-outs that look alike come from different tables or passages of the source.

Tests used:
ELIC A244T mutant = target: T1, ELIC A244T mutant (Dickeya chrysanthemi, UniProt P0C7B7, A243T); assay: Two-electrode voltage clamp of A244T (13′) ELIC mutant in Xenopus laevis oocytes; assay type: cell-based, Erwinia chrysanthemi
T1 construct: DNA encoding ELIC and a T7 promoter was inserted into the pCMV-mGFP Cterm S11 NeoKan (Theranostech) vector; expressed in transfected cells; host or cells: Xenopus laevis oocytes (cRNA injection)
From the text: (§1) To establish the functional relevance of the identified isoflurane-binding sites, we made site-directed mutations, one at a time, at positions 6′ (T237A) and 13′ (A244T). Subsequently, we expressed these mutants in Xenopus laevis oocytes and measured their functional responses to isoflurane (Fig. 3). […] However, these mutant channels, especially T237A, are much less sensitive to isoflurane inhibition than the WT ELIC. […] The functional consequences of these mutations are associated with changes in the hydrophobicity profile and pore radii near positions 6′ and 13′ (Supplementary Fig. 2). It should be noted that the side chains of the hydrophobic residue at the 9′ position are involved in both of the isoflurane-binding sites (Fig. 2c). The fact that the isoflurane inhibition curve shifts an order of magnitude to the right in the T237A mutant indicates the importance of amphipathic interactions at position 6′ for isoflurane inhibition.
Figure 3 Functional evidence of isoflurane binding to the pore. (a) Representative current traces for isoflurane inhibition of WT and two mutants: T237(6′)A; and A244(13′)T. The scale bars are 0.1 μA (vertical) and 30s (horizontal). (b) Agonist propylamine (PPA) concentration-response curves for WT and two mutants indicated in (a). The data were normalized to the maximum current and fit to the Hill equation (solid lines, n ≥ 5). (c) Isoflurane inhibition of WT and the two mutants indicated in (a). The data were normalized to the current at EC20 in the absence of isoflurane and fit to the Hill equation (solid lines, n ≥ 6). The data are reported as the mean ± SEM and error bars less than the symbol size are not visible.
Site-directed mutagenesis of ELIC was introduced with the QuickChange Lightning Kit (Agilent). DNA encoding ELIC and a T7 promoter was inserted into the pCMV-mGFP Cterm S11 NeoKan (Theranostech) vector. […]

α4β4 nAChR = tested on: α4β4 nAChR; design: method as in ref 11 (a number printed in a supplementary file, which may have a reference list of its own: not looked up in the article's list); settings: read-out: IC50 for nAChRs: α4β4 (chicken); cited from earlier work
ELIC [1] = target: T2, ELIC (Dickeya chrysanthemi, UniProt P0C7B7); assay: Two-electrode voltage clamp inhibition of wild-type ELIC expressed in Xenopus laevis oocytes; assay type: cell-based, Erwinia chrysanthemi
T2 construct: DNA encoding ELIC and a T7 promoter was inserted into the pCMV-mGFP Cterm S11 NeoKan (Theranostech) vector; expressed in transfected cells; host or cells: Xenopus laevis oocytes (cRNA injection)
From the text: The scale bars are 0.2 μA (vertical) and 30s (horizontal). The data were normalized to the current at EC20 in the absence of anesthetics and fit to the Hill equation (solid lines, n ≥ 6) for the volatile (b) and intravenous (c) general anesthetics. […] The data are reported as the mean ± SEM and error bars less than the symbol size are not visible.
Site-directed mutagenesis of ELIC was introduced with the QuickChange Lightning Kit (Agilent). DNA encoding ELIC and a T7 promoter was inserted into the pCMV-mGFP Cterm S11 NeoKan (Theranostech) vector. Capped complementary RNA was transcribed with the mMessage mMachine T7 kit (Ambion), purified with the RNeasy kit (Qiagen), injected (10–25 ng) into Xenopus laevis oocytes (stages 5–6), which were maintained at 18 °C in a modified Barth’s solution[40]. […] Oocytes were clamped to a holding potential of −40 to −60 mV. The recording solutions contained 130 mM NaCl, 0.1 mM CaCl2, 10 mM HEPES, pH 7.0 as well as desired concentrations of agonist and anesthetics. Data were collected and processed using Clampex 10 (Molecular Devices). Non-linear regressions were performed using Prism software (Graphpad).
For measuring anesthetic inhibitory effects, saturated solutions of the volatile anesthetics isoflurane, sevoflurane, and halothane were prepared in the recording solution by stirring overnight at 4 °C. Concentrations of these anesthetics in the recording chamber were calibrated using ^19F NMR[63]. The intravenous anesthetics, propofol, etomidate, and thiopental, were dissolved directly into the recording solution.

α4β2 nAChR [2] = settings: read-out: IC50 for nAChRs: α4β2 (rat); cited from earlier work
α7 nAChR [3] = tested on: α7 nAChR; design: method as in ref 12 (a number printed in a supplementary file, which may have a reference list of its own: not looked up in the article's list); settings: read-out: IC50 for nAChRs: α7 (chicken); cited from earlier work
α4β2 nAChR [4] = settings: read-out: IC50 for nAChRs: α4β2 (human); cited from earlier work
α2β4 nAChR = settings: cited from earlier work
ELIC [5] = target: T2, ELIC; assay: Isoflurane pre-incubation: onset of agonist-induced ELIC current; assay type: cell-based, Erwinia chrysanthemi; settings: mean ± SEM, n = 15
Procedure: Since isoflurane binds to the pore of the resting state of ELIC (Fig. 2a), pre-incubating the oocytes expressing ELIC with isoflurane for a short period of time is expected to enhance the inhibitory effect.
Figure 4 Isoflurane binding stabilized the closed channel. (a) A representative trace showing that pre-incubation with isoflurane (red arrows) slowed the onset rate and increased the maximum inhibition. The vertical and horizontal scale bars represent 20 μA and 30 seconds, representatively. (b) The onset rate of the channel current can be fitted to a single exponential decay function, I = Imax (1−e^(−t/τ)). The fitting results for the onset rate τ and Imax for channels pre-incubated with isoflurane (red line) are 1.73 ± 0.04 s and −0.33 ± 0.02 μA, respectively; and 1.25 ± 0.05 s and −0.41 ± 0.03 μA, respectively, for channels without isoflurane pre-incubation (green line). The fitting parameters are expressed as mean ± SEM (n = 15).
Site-directed mutagenesis of ELIC was introduced with the QuickChange Lightning Kit (Agilent). DNA encoding ELIC and a T7 promoter was inserted into the pCMV-mGFP Cterm S11 NeoKan (Theranostech) vector. Capped complementary RNA was transcribed with the mMessage mMachine T7 kit (Ambion), purified with the RNeasy kit (Qiagen), injected (10–25 ng) into Xenopus laevis oocytes (stages 5–6), which were maintained at 18 °C in a modified Barth’s solution[40]. All procedures involving Xenopus laevis oocytes were approved by the University of Pittsburgh Institutional Animal Care and Use Committee (IACUC), Protocol 14114745. Two-electrode voltage clamp experiments were performed 16–40 hrs after injection using an Oocyte Clamp OC-725C amplifier (Warner Instruments), Digidata 1440A digitizer (Axon Instruments), and a 20 μl chamber (Automate Scientific). Oocytes were clamped to a holding potential of −40 to −60 mV. The recording solutions contained 130 mM NaCl, 0.1 mM CaCl2, 10 mM HEPES, pH 7.0 as well as desired concentrations of agonist and anesthetics. Data were collected and processed using Clampex 10 (Molecular Devices). Non-linear regressions were performed using Prism software (Graphpad).

α3β4 nAChR = tested on: α3β4 nAChR; design: method as in ref 8 (a number printed in a supplementary file, which may have a reference list of its own: not looked up in the article's list); settings: read-out: IC50 for nAChRs: α3β4; cited from earlier work
ELIC T237A mutant = target: T3, ELIC T237A mutant (Dickeya chrysanthemi, UniProt P0C7B7, T236A); assay: Two-electrode voltage clamp of T237A (6′) ELIC mutant in Xenopus laevis oocytes; assay type: cell-based, Erwinia chrysanthemi
T3 construct: DNA encoding ELIC and a T7 promoter was inserted into the pCMV-mGFP Cterm S11 NeoKan (Theranostech) vector; expressed in transfected cells; host or cells: Xenopus laevis oocytes (cRNA injection)
T3 sequence (P0C7B7 1-321 T236A): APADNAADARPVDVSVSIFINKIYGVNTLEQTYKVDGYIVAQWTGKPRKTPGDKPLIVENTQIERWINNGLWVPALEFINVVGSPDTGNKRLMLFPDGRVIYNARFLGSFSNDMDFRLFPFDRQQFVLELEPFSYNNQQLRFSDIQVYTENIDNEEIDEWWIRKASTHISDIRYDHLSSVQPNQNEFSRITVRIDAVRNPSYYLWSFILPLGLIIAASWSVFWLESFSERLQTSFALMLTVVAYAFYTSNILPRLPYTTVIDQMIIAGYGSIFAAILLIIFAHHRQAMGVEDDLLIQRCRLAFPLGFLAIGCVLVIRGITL
From the text: as §1
Figure 3 Functional evidence of isoflurane binding to the pore. (a) Representative current traces for isoflurane inhibition of WT and two mutants: T237(6′)A; and A244(13′)T. The scale bars are 0.1 μA (vertical) and 30s (horizontal). (b) Agonist propylamine (PPA) concentration-response curves for WT and two mutants indicated in (a). The data were normalized to the maximum current and fit to the Hill equation (solid lines, n ≥ 5). […]

α4β2 nAChR [6] = tested on: α4β2 nAChR; design: method as in ref 6 (a number printed in a supplementary file, which may have a reference list of its own: not looked up in the article's list); settings: read-out: IC50 for nAChRs: α4β2 (chicken); cited from earlier work
[7] = anesthetizing concentrations in animals; read-out: Clinical EC50; cited from earlier work
α7 nAChR [8] = tested on: α7 nAChR; design: method as in ref 16 (a number printed in a supplementary file, which may have a reference list of its own: not looked up in the article's list); settings: read-out: IC50 for nAChRs: α7 (human); cited from earlier work
[9] = WT ELIC, agonist propylamine (PPA) at EC20, oocytes, mean ± SEM, n ≥ 6, read-out: IC50 for ELIC
[10] = channels pre-incubated with isoflurane, single exponential fit
[11] = channels without isoflurane pre-incubation

T2 sequence (P0C7B7 whole entry): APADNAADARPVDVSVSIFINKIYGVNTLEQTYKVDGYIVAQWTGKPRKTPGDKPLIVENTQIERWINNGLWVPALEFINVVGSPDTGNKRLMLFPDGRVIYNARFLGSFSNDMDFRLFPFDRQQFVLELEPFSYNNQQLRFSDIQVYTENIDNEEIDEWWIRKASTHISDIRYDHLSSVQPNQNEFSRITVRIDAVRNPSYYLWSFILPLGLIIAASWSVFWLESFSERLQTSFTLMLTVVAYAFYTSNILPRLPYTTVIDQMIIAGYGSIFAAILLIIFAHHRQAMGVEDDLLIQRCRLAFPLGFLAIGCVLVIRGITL
T1 sequence (P0C7B7 whole entry A243T): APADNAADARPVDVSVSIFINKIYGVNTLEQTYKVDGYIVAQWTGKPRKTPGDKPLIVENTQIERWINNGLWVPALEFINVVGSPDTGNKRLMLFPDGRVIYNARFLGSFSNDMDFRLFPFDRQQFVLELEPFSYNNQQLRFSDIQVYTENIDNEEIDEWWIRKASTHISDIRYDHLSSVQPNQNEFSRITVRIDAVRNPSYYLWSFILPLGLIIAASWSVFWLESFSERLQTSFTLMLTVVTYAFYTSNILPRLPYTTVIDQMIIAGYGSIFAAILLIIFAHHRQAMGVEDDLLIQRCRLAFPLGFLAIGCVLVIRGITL

With `CCCN` [PPA, propylamine] as the compound, how does the “EC50 of agonist PPA compared with WT ELIC” value (ELIC A244T mutant; A244T mutant vs wild-type ELIC) read?
The value was “nearly identical”.

What does the source list for `CCOC(=O)c1cncn1[C@H](C)c1ccccc1` [etomidate]?
IC50 (α4β4 nAChR): 33 µM; IC50 (ELIC [1]): 11.2 ± 1.1 µM; IC50 (α4β2 nAChR [2]): 49 µM; IC50 (α7 nAChR [3]): 25.3 µM

With `FC(F)(F)C(Cl)Br` (centres unmarked) [halothane] as the compound, how does the IC50 (α4β2 nAChR [4]) read?
Its IC50 is 27 µM.

And the IC50 (α2β4 nAChR; read-out: IC50 for nAChRs: α2β4 (human))?
The IC50 was 47 µM.

What about the IC50 (ELIC [1]; [9]) of the same compound?
Its IC50 is 40 ± 4.5 µM.

With `FC(F)OC(Cl)C(F)(F)F` (centres unmarked) [isoflurane] as the compound, how does the IC50 (α4β2 nAChR [4]) read?
The IC50 was 82 µM.

What about the IC50 (α2β4 nAChR; read-out: IC50 for nAChRs: α2β4) of the same compound?
The IC50 was 25 µM.

And the IC50 (ELIC [1]; [9])?
Its IC50 is 21.9 ± 1.5 µM.

And the “Imax of channel current” value (ELIC [5]; [10])?
The value was −0.33 ± 0.02 μA.

What about the “Onset rate τ of channel current” value (ELIC [5]; [10]) of the same compound?
The value was 1.73 ± 0.04 s.

And the “Imax of channel current” value (ELIC [5]; [11])?
The value was −0.41 ± 0.03 μA.

What about the “Onset rate τ of channel current” value (ELIC [5]; [11]) of the same compound?
The value was 1.25 ± 0.05 s.

And the IC50 (ELIC A244T mutant)?
The IC50 was 61.7 ± 5.5 µM.

And the “Increase of isoflurane IC50 relative to the WT channel” value (ELIC A244T mutant; A244T vs WT ELIC)?
Its value is ~3 fold.

And the IC50 (α3β4 nAChR)?
Its IC50 is 56 µM.

And the IC50 (ELIC T237A mutant; T237A (6′) mutant, PPA at EC20, mean ± SEM, n ≥ 6, read-out: IC50 of isoflurane, T237A channel)?
Its IC50 is 525 ± 58.2 µM.

And the “Increase of isoflurane IC50 relative to the WT channel” value (ELIC T237A mutant; T237A vs WT ELIC)?
Its value is “more than an order of magnitude”.

Which IC50 (ELIC [1]; [9]) does the source give for `CC(C)c1cccc(C(C)C)c1O` [propofol] here?
Its IC50 is 11.9 ± 1.1 µM.

And the IC50 (α4β2 nAChR [2])?
The IC50 was 4.5 µM.

And the IC50 (α4β2 nAChR [6])?
Its IC50 is 19 µM.

What about the EC50 [7] of the same compound?
The EC50 was 1.5 µM.

With `FCOC(C(F)(F)F)C(F)(F)F` [sevoflurane] as the compound, how does the IC50 (ELIC [1]; [9]) read?
Its IC50 is 23.2 ± 1.6 µM.

Which results are given for `CCCC(C)C1(CC)C(=O)NC(=S)NC1=O` (centres unmarked) [thiopental]?
IC50 (ELIC [1]): 42.8 ± 1.1 µM; IC50 (α4β2 nAChR [2]): 26 µM; IC50 (α7 nAChR [8]): 40.6 µM; EC50 [7]: 25 µM
